In PubChem BioAssay (NCI):
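Step 1: Grow cells in 96-well plates. Step 2: Expose to compound for 48 hours at 5 concentrations. Step 3: Interpolate endpoints linearly; if unreached, use highest concentration. GI50 = concentration required for 50% inhibition of growth. TGI: concentration producing complete growth inhibition.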

Tests used:
Assay in all cases: growth of human tumour cells (NCI), 48 h
SW-620 colon = tested on: SW-620 colon
DU-145 prostate = tested on: DU-145 prostate
U251 CNS = tested on: U251 CNS
SK-OV-3 ovarian = tested on: SK-OV-3 ovarian
COLO 205 colon = tested on: COLO 205 colon
786-0 renal = tested on: 786-0 renal
BT-549 breast = tested on: BT-549 breast
UACC-257 melanoma = tested on: UACC-257 melanoma
OVCAR-8 ovarian = tested on: OVCAR-8 ovarian
TK-10 renal = tested on: TK-10 renal
ACHN renal = tested on: ACHN renal
M14 melanoma = tested on: M14 melanoma
OVCAR-3 ovarian = tested on: OVCAR-3 ovarian
SNB-19 CNS = tested on: SNB-19 CNS
SN12C renal = tested on: SN12C renal
A498 renal = tested on: A498 renal
IGROV1 ovarian = tested on: IGROV1 ovarian
EKVX NSCLC = tested on: EKVX NSCLC
OVCAR-4 ovarian = tested on: OVCAR-4 ovarian
MALME-3M melanoma = tested on: MALME-3M melanoma
HCT-116 colon = tested on: HCT-116 colon
MDA-MB-435 = tested on: MDA-MB-435
MCF7 breast = tested on: MCF7 breast
SR leukemia = tested on: SR leukemia
NCI/ADR-RES ovarian = tested on: NCI/ADR-RES ovarian
HCC-2998 colon = tested on: HCC-2998 colon
LOX IMVI melanoma = tested on: LOX IMVI melanoma
NCI-H23 lung = tested on: NCI-H23 lung
A549 NSCLC = tested on: A549 NSCLC
SF-268 CNS = tested on: SF-268 CNS
NCI-H226 lung = tested on: NCI-H226 lung
SK-MEL-2 melanoma = tested on: SK-MEL-2 melanoma
T-47D breast = tested on: T-47D breast
CAKI-1 renal = tested on: CAKI-1 renal
K-562 leukemia = tested on: K-562 leukemia
MDA-N = tested on: MDA-N
MOLT-4 leukemia = tested on: MOLT-4 leukemia
HL-60(TB) leukemia = tested on: HL-60(TB) leukemia
PC-3 prostate = tested on: PC-3 prostate
UACC-62 melanoma = tested on: UACC-62 melanoma
SK-MEL-28 melanoma = tested on: SK-MEL-28 melanoma
HOP-62 NSCLC = tested on: HOP-62 NSCLC
NCI-H460 lung = tested on: NCI-H460 lung
HT29 colon = tested on: HT29 colon
HCT-15 colon = tested on: HCT-15 colon
SF-539 CNS = tested on: SF-539 CNS
RPMI-8226 leukemia = tested on: RPMI-8226 leukemia
HOP-92 NSCLC = tested on: HOP-92 NSCLC
SNB-75 CNS = tested on: SNB-75 CNS
MDA-MB-231 breast = tested on: MDA-MB-231 breast
SF-295 CNS = tested on: SF-295 CNS
UO-31 renal = tested on: UO-31 renal
KM12 colon = tested on: KM12 colon
OVCAR-5 ovarian = tested on: OVCAR-5 ovarian
NCI-H522 lung = tested on: NCI-H522 lung
CCRF-CEM leukemia = tested on: CCRF-CEM leukemia
HS 578T breast = tested on: HS 578T breast
SK-MEL-5 melanoma = tested on: SK-MEL-5 melanoma

CCCCCC[n+]1noc(N)c1-c1ccc(-c2c(N)on[n+]2CCCCCC)cc1
GI50 (SW-620 colon): 2.32 µg/mL | TGI (SW-620 colon): 6.14 µg/mL | GI50 (DU-145 prostate): 9.82 µg/mL | TGI (DU-145 prostate): 24.4 µg/mL | GI50 (U251 CNS): 1.71 µg/mL | TGI (U251 CNS): 3.47 µg/mL | GI50 (SK-OV-3 ovarian): 3.37 µg/mL | TGI (SK-OV-3 ovarian): 11 µg/mL | GI50 (COLO 205 colon): 1.66 µg/mL | TGI (COLO 205 colon): 3.58 µg/mL | GI50 (786-0 renal): 1.61 µg/mL | TGI (786-0 renal): 3.32 µg/mL | GI50 (BT-549 breast): 3.83 µg/mL | TGI (BT-549 breast): 14 µg/mL | GI50 (UACC-257 melanoma): 1.73 µg/mL | TGI (UACC-257 melanoma): 3.34 µg/mL | GI50 (OVCAR-8 ovarian): 2.6 µg/mL | TGI (OVCAR-8 ovarian): 9.53 µg/mL | GI50 (TK-10 renal): 2.81 µg/mL | TGI (TK-10 renal): 8.51 µg/mL | GI50 (ACHN renal): 7.74 µg/mL | TGI (ACHN renal): 20.7 µg/mL | GI50 (M14 melanoma): 1.9 µg/mL | TGI (M14 melanoma): 3.43 µg/mL | GI50 (OVCAR-3 ovarian): 12.7 µg/mL | TGI (OVCAR-3 ovarian): 26.1 µg/mL | GI50 (SNB-19 CNS): 9.62 µg/mL | TGI (SNB-19 CNS): 22.8 µg/mL | GI50 (SN12C renal): 6.2 µg/mL | TGI (SN12C renal): 17.3 µg/mL | GI50 (A498 renal): 6.03 µg/mL | TGI (A498 renal): 16 µg/mL | GI50 (IGROV1 ovarian): 6.74 µg/mL | TGI (IGROV1 ovarian): 20.4 µg/mL | GI50 (EKVX NSCLC): 7.71 µg/mL | TGI (EKVX NSCLC): 23.2 µg/mL | GI50 (OVCAR-4 ovarian): 2.62 µg/mL | TGI (OVCAR-4 ovarian): 14.9 µg/mL | GI50 (MALME-3M melanoma): 1.81 µg/mL | TGI (MALME-3M melanoma): 3.33 µg/mL | GI50 (HCT-116 colon): 3.97 µg/mL | TGI (HCT-116 colon): 14.3 µg/mL | GI50 (MDA-MB-435): 1.76 µg/mL | TGI (MDA-MB-435): 3.23 µg/mL | GI50 (MCF7 breast): 1.97 µg/mL | TGI (MCF7 breast): 4.1 µg/mL | GI50 (SR leukemia): 1.89 µg/mL | TGI (SR leukemia): 4.87 µg/mL | GI50 (NCI/ADR-RES ovarian): 12.5 µg/mL | TGI (NCI/ADR-RES ovarian): 25.6 µg/mL | GI50 (HCC-2998 colon): 1.45 µg/mL | TGI (HCC-2998 colon): 2.79 µg/mL | GI50 (LOX IMVI melanoma): 1.95 µg/mL | TGI (LOX IMVI melanoma): 4.21 µg/mL | GI50 (NCI-H23 lung): 14.1 µg/mL | TGI (NCI-H23 lung): 27.9 µg/mL | GI50 (A549 NSCLC): 5.25 µg/mL | TGI (A549 NSCLC): 13.9 µg/mL | GI50 (SF-268 CNS): 7.82 µg/mL | TGI (SF-268 CNS): 22.4 µg/mL | GI50 (NCI-H226 lung): 14.2 µg/mL | TGI (NCI-H226 lung): 28.2 µg/mL | GI50 (SK-MEL-2 melanoma): 1.61 µg/mL | TGI (SK-MEL-2 melanoma): 3.1 µg/mL | GI50 (T-47D breast): 2.49 µg/mL | TGI (T-47D breast): 6.28 µg/mL | GI50 (CAKI-1 renal): 2.18 µg/mL | TGI (CAKI-1 renal): 5.22 µg/mL | GI50 (K-562 leukemia): 1.79 µg/mL | TGI (K-562 leukemia): 3.8 µg/mL | GI50 (MDA-N): 1.78 µg/mL | TGI (MDA-N): 3.48 µg/mL | GI50 (MOLT-4 leukemia): 2.36 µg/mL | TGI (MOLT-4 leukemia): 7.33 µg/mL | GI50 (HL-60(TB) leukemia): 1.61 µg/mL | TGI (HL-60(TB) leukemia): 3.07 µg/mL | GI50 (PC-3 prostate): 3.46 µg/mL | TGI (PC-3 prostate): 16.8 µg/mL | GI50 (UACC-62 melanoma): 1.94 µg/mL | TGI (UACC-62 melanoma): 3.51 µg/mL | GI50 (SK-MEL-28 melanoma): 1.69 µg/mL | TGI (SK-MEL-28 melanoma): 3.13 µg/mL | GI50 (HOP-62 NSCLC): 7.64 µg/mL | TGI (HOP-62 NSCLC): 20.6 µg/mL | GI50 (NCI-H460 lung): 2.03 µg/mL | TGI (NCI-H460 lung): 4.7 µg/mL | GI50 (HT29 colon): 1.85 µg/mL | TGI (HT29 colon): 4.01 µg/mL | GI50 (HCT-15 colon): 2.59 µg/mL | TGI (HCT-15 colon): 8.72 µg/mL | GI50 (SF-539 CNS): 1.77 µg/mL | TGI (SF-539 CNS): 3.42 µg/mL | GI50 (RPMI-8226 leukemia): 1.98 µg/mL | TGI (RPMI-8226 leukemia): 4.71 µg/mL | GI50 (HOP-92 NSCLC): 1.09 µg/mL | TGI (HOP-92 NSCLC): 5.91 µg/mL | GI50 (SNB-75 CNS): 3.41 µg/mL | TGI (SNB-75 CNS): 11.3 µg/mL | GI50 (MDA-MB-231 breast): 3.3 µg/mL | TGI (MDA-MB-231 breast): 9.87 µg/mL | GI50 (SF-295 CNS): 1.88 µg/mL | TGI (SF-295 CNS): 3.73 µg/mL | GI50 (UO-31 renal): 1.89 µg/mL | TGI (UO-31 renal): 4.46 µg/mL | GI50 (KM12 colon): 3.97 µg/mL | TGI (KM12 colon): 14.6 µg/mL | GI50 (OVCAR-5 ovarian): 5.54 µg/mL | TGI (OVCAR-5 ovarian): 14.6 µg/mL | GI50 (NCI-H522 lung): 1.99 µg/mL | TGI (NCI-H522 lung): 3.69 µg/mL | GI50 (CCRF-CEM leukemia): 5.09 µg/mL | TGI (CCRF-CEM leukemia): 10.1 µg/mL | GI50 (HS 578T breast): 2.13 µg/mL | TGI (HS 578T breast): 5.06 µg/mL | GI50 (SK-MEL-5 melanoma): 1.66 µg/mL | TGI (SK-MEL-5 melanoma): 3.04 µg/mL
